According to patent US7326710B2, “Aralkyl formyl-alkyl piperazine derivatives and their uses as a cerebral nerve protective agent” (Shanghai Institute of Pharmaceutical Industry, priority 2002, dated 2008):
Where two headings read alike, the source gives them in different places. Marks after values point to notes of the source that are not given here.

How the values were obtained:
[1] = system: NMDA receptor; experiment: Maximum contraction of isolated guinea pig longitudinal ileum muscle preparations induced by L-Glu; details: compound 10^−5M; contraction induced by L-Glu
Description: According to the literature (Luzzi, Br J Pharmacol, 95:1271, 1988), maximum contraction of isolated longitudinal ileomuscle preparations of guinea pig induced by L-Glu, were used to examine the activities of the compounds on the NMDA receptor.

[2] = system: focal cerebral ischemia in rats; experiment: Focal cerebral ischemia in rats by occlusion of middle cerebral artery (MCA); format: in vivo; details: 20 mg/kg p.o.
Method: The focal ischemia rat model by occlusion of middle cerebral artery (MCA) was used to determine the protective effects of the compounds on focal cerebral ischemia. The infarct size after focal cerebral ischemia and the weight percentage of cerebral hemisphere were calculated to evaluate the compounds' effects on focal cerebral ischemia.

[3] = system: cerebral anoxia in mice; experiment: Anoxic anoxia experiment in mice (closed wide-mouth bottles with soda lime); format: in vivo, Male Kunming mice
Method: Methods: Male Kunming mice were divided into 8 groups, 12 mice for each group. One group is injected subcutaneously with saline ([…], sc), other groups with ACEA1021 (NMDA receptor antagonist under clinical trial) or IV-23. 30 minutes after administration, the animals were put separately into wide-mouth bottles with soda lime, which more quickly closed. The survival time for each mice was recorded, and the group average of survival time was calculated and compared with the saline group.

[4] = system: global cerebral ischemia-reperfusion injury in rats; experiment: Global cerebral ischemia-reperfusion in rats, four arteries reversible occlusion; format: in vivo
Description: The effect of IV-23 on cerebral ischemia-reperfusion in rats was studied using four arteries reversible occlusion by measuring the recovering time of the electroencephalogram and the righting reflex (a short time indicates a strong effect).

[5] = system: focal cerebral ischemia in rats; experiment: Focal cerebral infarction, electrical coagulation to occlude MCA; format: in vivo; set-up: The neurological deficit score After the operation / The neurological deficit score 24 h: scale not given here
Method: a. The Focal Cerebral-Infarction of Using Electrical Coagulation to Occlude MCA:
For the 5 mg/kg group, the percentage of the rat's infarct size was decreased, but the difference is not significant (p=0.098). The effect is not significant for the Nimodipine mg/kg.

[6] = system: focal cerebral ischemia in rats; experiment: Focal brain injury, occlusion of MCA induced by photochemical reaction; format: in vivo
Method: a. Focal brain injury caused by photochemical induction of occlusion of the artery:
The percentage of infarction was lowered by 52% at 24 hours after operation.

[7] = system: focal cerebral ischemia in rats; experiment: Temporary occlusion of the right MCA in rats caused by suture; format: in vivo; details: for Percent of volume (Means ± SEM) / Percent of infarct (%) (Means ± SEM): rats; for Percent of volume (Means ± SEM): length of ischemia 6 hr
Description: b. Temporary occlusion of the right MCA in rats caused by suture.

[8] = system: NMDA receptor; experiment: Whole-cell patch clamp, current induced by NMDA in isolated rat CA1 pyramidal neuron; format: cell-based; details: NMDA 100 μm, n=4, read-out: IC50, inhibition of the electric current induced by NMDA
Method: Methods: The whole-cell patch-clamp technique. Separate the rat's hippocampi, slash the brain piece into 500 μm thick. Get the CA1 area of hippocampi, put it into artificial cerebral spinal fluid (ACSF) to incubate for more than 1 hour. Then the solution is oxygen saturated. After the incubation of the brain piece, put it into ACSF with protease XIII (1 mg/ml) for 5 minutes. Using trypsin inhibitor type II-S (3 mg/ml) to terminate the protease digestion, and then using test tube to break the brain piece to obtain free cells, let it stand for a while and then start the experiment.
The electro-physiological experiment used the technique of whole-cell patch-clamp. The amplifier in the experiment is Axon-200A patch-clamp amplifier, with the DigiData-1200A as a sampling port. The software used is AxoScope Version 1.0. The experiment uses as a standard the electric current generated by the whole-cell. The effect of various samples on the electric current was observed. IC50 was determined by proportion of different concentrations to the electric current of NMDA.

[9] = system: primary culture of rat cerebral cortical neuronal cells; experiment: Protective effect on neurons damaged with NMDA, LDH activity; format: cell-based; details: NMDA 1 mmol/L
Description: Primary culture of rat cerebral cortical neuronal cells were used. […] This is further evidence that IV-23 is a new NMDA receptor antagonist, and has anti-cerebral ischemic injury functions as well.

[10] = Acute toxicity; details: mouse, in vivo, mice, read-out: LD50 (95% confidence limit)
[11] = Ames test; format: cell-based
Description: The Ames test of IV-23 was negative.

[12] = system: rodent; experiment: Rodent microkernel experiment; details: in vivo
Description: The rodent microkernel experiment of IV-23 was negative.

[13] = system: mammalian cultural cell; experiment: Chromosome aberration trial in mammalian cultural cell; format: cell-based
Description: The chromosome aberration trial in mammalian cultural cell was negative.

[14] = system: rats platelet aggregation induced by ADP; experiment: Platelet aggregation induced by ADP; format: cell-based; details: concentration 1×10^−4M
[15] = system: focal cerebral ischemia in rats; experiment: Focal cerebral infarction, electrical coagulation to occlude MCA; format: in vivo; set-up: The neurological deficit score After the operation / The neurological deficit score 24 h: scale not given here; remark: listed apart in the source

## O=C(CN1CCN(CC(=O)c2ccccc2)CC1)NCc1ccccc1 [IV-23, N^1-phenacyl-N^4-[2-(benzylamino)-2-oxo-ethyl] piperazine]
[1]
  antagonism % (restrain rate of contraction of preparations): 40%
[2]
  Infarct volume: 0.057 ± 0.012 g
  Neurological deficit After operation: 9.4 ± 1.5
[3]; 10 mg/kg sc
  Average survival time (min)(means ± S.E.M.): 16.46 ± 0.89 min
[3]; 20 mg/kg sc
  Average survival time (min)(means ± S.E.M.): 17.11 ± 0.53 min
[3]; 40 mg/kg sc
  Average survival time (min)(means ± S.E.M.): 19.26 ± 0.91 min
[3]; 80 mg/kg sc
  Average survival time (min)(means ± S.E.M.): 20.04 ± 1.56 min
[3]; Mus musculus, sc, survival time in anoxic anoxia
  ED50: 6.2 mg/kg
[4]; High-dose (20 mg/kg ip)
  Time for electroencephalogram to disappear(S): 566.3 ± 430.3^*Δ S
  Time for electroencephalogram to recover (S): 70.3 ± 20.1^***ΔΔΔ S
  Time for righting reflex to recover (S): 147.0 ± 123.1^*ΔΔΔ S
[4]; Low-dose (5 mg/kg ip)
  Time for electroencephalogram to disappear(S): 275.5 ± 338.1^*Δ S
  Time for electroencephalogram to recover (S): 184.6 ± 214.1^***ΔΔΔ S
  Time for righting reflex to recover (S): 550.0 ± 282.5^*ΔΔΔ S
[4]; Middle-dose (10 mg/kg ip)
  Time for electroencephalogram to disappear(S): 557.1 ± 639.4^*Δ S
  Time for electroencephalogram to recover (S): 334.3 ± 674.3^***ΔΔΔ S
  Time for righting reflex to recover (S): 822.8 ± 741.9^*ΔΔ S
[5]; Low-dose (5 mg/kg)
  The neurological deficit score 24 h: 8.1 ± 2.0
  The neurological deficit score After the operation: 9.7 ± 0.5
  The percentage of infarction (%): 20.8 ± 8.8 %
  The weight of infarct area: 0.15 ± 0.06 g
[5]; middle-dose (10 mg/kg)
  The neurological deficit score 24 h: 5.6 ± 2.7
  The neurological deficit score After the operation: 9.6 ± 0.5
[6]; compared with vehicle (saline), 24 hours after operation
  percentage of infarction lowered by: 52%
[6]; rats, 2 mg/kg
  Necrotic percent (%): 11 ± 3***^ΔΔΔ %
  Score of praxiology After operation: 9.6 ± 0.5
  Weight of necrotic area (g): 0.08 ± 0.02***^ΔΔΔ g
[6]; rats, 2 mg/kg, 24 h
  Score of praxiology 24 h: 5.4 ± 1.9***^Δ
[7]; 5 mg/kg, after 3 hours of ischemia
  reduce the volume (of cerebral infarction) by: 46.3%
[7]; 2.5 mg/kg
  Percent of volume (Means ± SEM): 15.42 ± 1.71%
[7]; 5 mg/kg
  Percent of volume (Means ± SEM): 12.90 ± 1.11%
[7]; 5 mg/kg, time of occlusion 1 hr
  Percent of infarct (%) (Means ± SEM): 1.31 ± 0.50%
[7]; 5 mg/kg, time of occlusion 3 hr
  Percent of infarct (%) (Means ± SEM): 8.57 ± 1.42%
[7]; 5 mg/kg, time of occlusion 6 hr
  Percent of infarct (%) (Means ± SEM): 12.90 ± 1.11%
[7]; 10 mg/kg
  Percent of volume (Means ± SEM): 14.92 ± 1.40%
[8]
  IC50: 562.7 ± 1.1 µM
[9]; Concentration 10
  LDH activities (U/g protein) (mean ± SEM): 1.86 ± 0.20 U/g protein
  Protective rate (%): 0%
[9]; Concentration 50
  LDH activities (U/g protein) (mean ± SEM): 1.23 ± 0.14 U/g protein
  Protective rate (%): 48.1%
[9]; Concentration 100
  LDH activities (U/g protein) (mean ± SEM): 1.05 ± 0.16 U/g protein
  Protective rate (%): 65.1%
[9]; Concentration 200
  LDH activities (U/g protein) (mean ± SEM): 0.79 ± 0.19 U/g protein
  Protective rate (%): 89.6%
[10]; iv, i.v.
  LD50: 133 mg/kg
[10]; po, p.o.
  LD50: 856 mg/kg
[11]
  Ames test: negative
[12]
  rodent microkernel experiment: negative
[13]
  chromosome aberration trial: negative
[14]
  inhibition of platelet aggregation induced by ADP: did inhibit
[15]; High-dose (20 mg/kg)
  The neurological deficit score 24 h: 6.7 ± 2.6
  The neurological deficit score After the operation: 9.7 ± 0.5
  The percentage of infarction (%): 14.2 ± 6.8 %
  The weight of infarct area: 0.11 ± 0.05 g
[15]; middle-dose (10 mg/kg)
  The percentage of infarction (%): 13.4 ± 8.4 %
  The weight of infarct area: 0.10 ± 0.06 g
